Experimental data published in patent publication US20150119391A1, “ANTI-TUMORAL COMPOSITION COMPRISING THE COMPOUND 1-(6--1,3-BENZOTHIAZOL-2-YL)-3-(2-MORPHOLIN-4-YLETHYL)UREA” (SANOFI, priority 2012, published 2015).
In brackets after ≈: the same amount, converted by molar mass. Read-outs that look alike come from different tables or passages of the source.

Experiments:
[1] = system: human Met-driven tumor cell lines; test: in vitro anti-proliferative activity; format: cell-based; settings: (nM), Met-driven tumor cell lines exclusively
[2] = Biopharmaceutics Classification System class / permeability characteristics; format: physicochemical
pKa (weak base) = format: physicochemical
solubility in water = format: physicochemical
[3] = stability to steam sterilization; format: physicochemical
Experimental: The concentrated pharmaceutical composition is prepared by usual methods for the preparation of aqueous liquid pharmaceutical composition. Generally, the process comprises a sterilization step, which is typically carried out by sterilizing filtration followed by aseptic filling.

[4] = system: human Met-amplified models; test: cellular anti-tumor activity as a single agent; format: cell-based

permeability characteristics [2]: poor
pKa (pKa (weak base)): 6.4
solubility (solubility in water): < 0.1 µg/mL
solubility (solubility in water; aqueous buffer, above pH 5): < 0.1 µg/mL
solubility (solubility in water; pH 1, simulated gastric fluid): ~90 µg/mL (≈ 163 µM)
solubility (solubility in water; pH 3, aqueous buffer): ~20 µg/mL (≈ 36.3 µM)
chemical stability on steam sterilization [3]: chemical degradation
Compound: O=C(NCCN1CCOCC1)Nc1nc2ccc(Sc3nnc4ccc(-c5ccc(F)cc5)nn34)cc2s1 [Compound A, 1-(6-{[6-(4-fluorophenyl)[1,2,4]triazolo[4,3-b]pyridazin-3-yl]sulfanyl}-1,3-benzothiazol-2-yl)-3-(2-morpholin-4-ylethyl)urea]
anti-proliferative activity [1]: highly potent
cellular anti-tumor activity [4]: highly potent
